The test system of assay [1] is RAW cells. Description: Cell attachment assay, RAW. The class given is cell-based.
For assay [2], the system named is HUVEC endothelial cells. Description: Tube formation assay, HUVEC. The class given is cell-based. The note with it: HUVEC on Matrigel, 3 hours. The protocol: Plates (48 wells) were coated with 150 μl of Matrigel and incubated at 37° C. for 1 hour to promote gelling. Svec4-10 or HUVEC cells (40,000 cells) in 0.5 ml of serum-free DMEM with varying concentration of AS101 or SAS were added to each well. For positive control, ECGS was added at a concentration of 50 μg/ml. All samples were performed in sextuplicate. After 3 hours incubation, the plates were fixed with methanol and stained with crystal violet. Randomly chosen fields were photographed and density of tube formation was analyzed by imageJ.

For assay [3], the target named is T1, αVβ3 integrin (Homo sapiens, UniProt P05106+P06756).
T1 construct: purchased Chemicon
T1 sequence (P06756 31-889 limits assumed): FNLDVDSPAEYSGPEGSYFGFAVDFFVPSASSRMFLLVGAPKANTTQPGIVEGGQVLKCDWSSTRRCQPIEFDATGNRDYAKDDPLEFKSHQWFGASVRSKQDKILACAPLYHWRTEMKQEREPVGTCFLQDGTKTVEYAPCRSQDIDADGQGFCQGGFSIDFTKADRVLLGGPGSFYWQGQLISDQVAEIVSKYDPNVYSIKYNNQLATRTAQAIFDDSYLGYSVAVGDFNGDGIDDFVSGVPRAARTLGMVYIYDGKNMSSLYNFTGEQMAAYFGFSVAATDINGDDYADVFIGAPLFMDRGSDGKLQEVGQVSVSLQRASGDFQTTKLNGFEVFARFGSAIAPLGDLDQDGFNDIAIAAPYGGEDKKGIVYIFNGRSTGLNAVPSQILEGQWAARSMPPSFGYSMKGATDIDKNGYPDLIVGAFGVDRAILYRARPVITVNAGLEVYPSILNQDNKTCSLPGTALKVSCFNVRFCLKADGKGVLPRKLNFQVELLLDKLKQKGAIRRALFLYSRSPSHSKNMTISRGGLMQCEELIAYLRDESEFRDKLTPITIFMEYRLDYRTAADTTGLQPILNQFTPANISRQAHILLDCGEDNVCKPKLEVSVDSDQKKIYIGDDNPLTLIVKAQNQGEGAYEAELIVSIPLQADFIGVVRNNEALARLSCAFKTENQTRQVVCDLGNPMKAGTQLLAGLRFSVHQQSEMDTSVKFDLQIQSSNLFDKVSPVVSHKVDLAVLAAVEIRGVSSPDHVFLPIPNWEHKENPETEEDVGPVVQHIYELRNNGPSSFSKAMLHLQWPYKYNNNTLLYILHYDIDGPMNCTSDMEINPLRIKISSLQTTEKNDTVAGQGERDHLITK
T1 sequence (P06756 891-1048 limits assumed): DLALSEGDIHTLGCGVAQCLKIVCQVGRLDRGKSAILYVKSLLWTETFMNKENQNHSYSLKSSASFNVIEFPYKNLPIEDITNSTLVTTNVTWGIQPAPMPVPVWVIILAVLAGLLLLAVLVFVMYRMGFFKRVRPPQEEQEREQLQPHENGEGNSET
T1 sequence (P05106 27-788): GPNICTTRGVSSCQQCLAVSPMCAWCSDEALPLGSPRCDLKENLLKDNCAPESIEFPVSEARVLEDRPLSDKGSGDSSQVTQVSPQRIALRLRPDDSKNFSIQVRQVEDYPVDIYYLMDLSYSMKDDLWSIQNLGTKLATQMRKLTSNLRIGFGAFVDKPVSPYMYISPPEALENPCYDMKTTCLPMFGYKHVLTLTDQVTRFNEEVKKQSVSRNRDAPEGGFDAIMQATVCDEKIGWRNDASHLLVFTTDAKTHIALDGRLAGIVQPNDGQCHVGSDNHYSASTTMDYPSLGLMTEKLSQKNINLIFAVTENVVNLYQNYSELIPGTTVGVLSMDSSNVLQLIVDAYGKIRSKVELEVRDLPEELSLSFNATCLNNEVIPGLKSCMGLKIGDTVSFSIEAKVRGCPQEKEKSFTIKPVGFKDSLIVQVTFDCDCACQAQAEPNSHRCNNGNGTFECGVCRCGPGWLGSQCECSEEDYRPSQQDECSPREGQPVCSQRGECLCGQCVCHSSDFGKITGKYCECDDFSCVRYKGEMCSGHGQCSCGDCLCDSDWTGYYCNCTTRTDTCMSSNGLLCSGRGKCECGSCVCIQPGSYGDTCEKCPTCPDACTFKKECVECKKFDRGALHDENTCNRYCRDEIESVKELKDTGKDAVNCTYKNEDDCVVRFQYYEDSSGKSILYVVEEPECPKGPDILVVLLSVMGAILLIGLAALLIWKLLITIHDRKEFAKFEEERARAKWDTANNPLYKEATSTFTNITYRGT
Kind of assay: ELISA-integrin. The assay is classed as binding. The note with it: 0.5-10 μg/ml. Here is the method:
Plates coated with C16 or fibronectin were blocked with 10% BSA for 1 hour and washed with PBS. 20 ng/well of integrin with or without AS101/SAS was applied on fibronectin or 2 ng C16 coated well and incubated for 1.5 hours at 37° C. The wells were thereafter washed with PBS-T and mouse anti-integrin was added thereto for 1 hour at 37° C. Cells were then washed again and anti-mouse-horseradish peroxidase was added for another 1 hour at 37° C. Finally, cells were washed, TBM-substrate was added for color development, and absorption was read at 595 nm. Data presented as ±SE, bar *=p<0.005, evaluated by T-test.
On the technique in general: In an ELISA, binding on a coated surface is turned into a signal by an enzyme label.

In assay [4] the test system is SVEC4-10 cells. Kind of assay: Cell attachment assay, SVEC4-10. The class given is cell-based, murine. Here is the method: (§1) The cell attachment assays were performed in sextuplicate in 96-well plates. The 1 μg of C16 or AG73 peptide in 60 μl double-distilled water was added to each well, and this volume was allowed to air dry overnight in a biosafety hood at room temperature (or fibronectin 20 ng/80 μl for 1 hour at 37° C.). Thereafter, nonspecific binding sites of the tissue culture plastic were blocked by adding 200 μl of 1% bovine serum albumin (BSA) in PBS for 1 hour at 37° C. LAN-1, B16F10 and SVEC4-10 cells were harvested by agitation, washed three times in serum-free DMEM and resuspended in 1% BSA-DMEM. After 20 minutes incubation in 1% BSA in a tube, cells were washed and resuspended in 0.1% BSA. The cells were counted using a hemocytometer and brought to a final cell count of 1×10^6/ml in the 0.1% BSA medium. Cells were divided into tubes and each tube was treated with one of the following in DMEM: ECGS (endothelial cell growth supplement) (50 μg/ml), AS101 (1-5 μg/ml), SAS (1-5 μg/ml), ECGS (50 μg/ml)+SAS (1-5 μg/ml), ECGS (50 μg/ml)+AS101 (1-5 μg/ml), 10% serum, 10% serum+AS101 (1-5 μg/ml) or 10% serum+SAS (1-5 μg/ml).
(§2) Next, 150 μl of the treated cell suspension was added to each well (20,000 cells/well), which had been coated with peptides, and incubated for 50 minutes at 37° C. After 50 minutes, the unattached cells were removed by aspiration and the remaining attached cells were fixed and stained by crystal violet. 100 μl aliquot of 10% SDS was thereafter added to each well for cell lysis and dye release and absorption was read with a TECAN spectrophotometer at 570 nm.
(§3) Attached cells were washed with PBS without Ca^+2/Mg^+2. 100 μl of 0.2% crystal violet in 20% methanol was thereafter added and the cells were incubated for 10 minutes at room temperature. At the end of incubation time, cells were washed twice with double-distilled water and 100 μl of 10% SDS was added. Dye bound to the cell is released by SDS and the absorption by the dye is measured by colorimetry at 570 nm. The amount of stained cells is then considered to be proportional to the measured absorption by the dye

The subject of assay [5] is B16F10 cells. Kind of assay: Cell attachment assay, B16F10. The note with it: B16F10, data not shown, compared with SVEC4-10. The assay is classed as cell-based, murine. Here is the method: as §1, with “Cells were divided into tubes and each tube was treated with one of the following in DMEM: ECGS (endothelial cell growth supplement) (50 μg/ml), AS101 (1-5 μg/ml), SAS (1-5 μg/ml), ECGS (50 μg/ml)+SAS (1-5 μg/ml), ECGS (50 μg/ml)+AS101 (1-5 μg/ml), 10% serum, 10% serum+AS101 (1-5 μg/ml) or 10% serum+SAS (1-5 μg/ml).” left out
Next, 150 μl of the treated cell suspension was added to each well (20,000 cells/well), which had been coated with peptides, and incubated for 50 minutes at 37° C. […] 100 μl aliquot of 10% SDS was thereafter added to each well for cell lysis and dye release and absorption was read with a TECAN spectrophotometer at 570 nm.
Attached cells were washed with PBS without Ca^+2/Mg^+2. […] Dye bound to the cell is released by SDS and the absorption by the dye is measured by colorimetry at 570 nm. The amount of stained cells is then considered to be proportional to the measured absorption by the dye

Assay [6] relates to LAN-1 cells. Kind of assay: Cell attachment assay, LAN-1. The note with it: for cell attachment to fibronectin: LAN-1; for cell attachment to C16 and AG73 peptides: LAN-1, data not shown, compared with SVEC4-10. The assay is classed as cell-based, human. Here is the method: as §1, §2, §3
In assay [7] the test system is integrin β subunits. Description: Multiple anti-integrin antibody binding assay, β subunits. The class given is cell-based. The note with it: SVEC cells. Here is the method:
(§4) The specificity of tellurium-containing compounds to integrins was tested by examining the effect of AS101 and SAS on the attachment of SVEC cells to specific anti-integrin antibodies. Commercially available kits (R&D Biosystems) with anti-integrin coated wells were used, and attachment was determined according to the manufacturer's instructions.

In assay [8] the test system is chick chorioallantoic membrane. Kind of assay: Chick chorioallantoic membrane (CAM) angiogenesis assay. The assay is classed as in vivo. The note with it: 5 μg/ml combined with ECGS 50 μg/ml, 3 days. Here is the method:
Collagen I solution was prepared by mixing 1.8 ml of collagen I, 4.14 μl of […] NaOH and 0.2 ml of 10×PBS/200 mM HEPES (pH 7.4). 10 μl of a mixture containing 0.1 ml of the collagen I solution and 0.2 ml of PBS either with or without AS101 (5 μg/ml) or SAS (5 μg/ml) was loaded onto a quarter piece of a Thermonox disc and gelled by warming to room temperature for 15 minutes. The disc was then applied to the chorioallantoic membrane of a 10-days-old embryo, following preparation of the eggs by removing 2 ml of albumin from the 3-days-old embryo and by “opening a window” to the 7-day-old embryo. ECGS (50 μg/ml) in PBS was used to induce angiogenesis and 5 μg/ml of AS101 or SAS were mixed with ECGS. After 3-days incubation, the negative or positive response was assessed under a binocular. Positive response, namely the appearance of a typical spokewheel pattern of new blood vessels around the loaded samples, was determined by a blinded observer. Assays for each test sample were carried out three times, and each experiment contains 10 to 12 eggs/data point.

The subject of assay [9] is C57B1/6N female mice. Kind of assay: Mouse plug in vivo migration and angiogenesis assay. The note with it: 20 μg/mouse s.c. daily, 10 days, ECGS 500 μg/ml in Matrigel. Here is the method: Matrigel was mixed with ECGS (500 μg/ml) and injected subcutaneously into C57B1/6N female mice on the ventral surface of the animal. During 10 days, every day, AS101 or SAS (20 μg/mouse in Matrigel) were injected subcutaneously. After 10 days, the plugs were removed with some surrounding tissue, fixed in 10% formalin, and paraffin-embedded. Sections were deparaffinized, and stained with hematoxylin and eosin dyes. In the most positive regions, stained cells were counted by a blinded observer. In each treatment group there were 5-6 mice, and the experiment was performed twice. Images from the sections were captured using a 10× objective of an Olympus microscope.

Assay [10] concerns integrin α subunits. Kind of assay: Multiple anti-integrin antibody binding assay, α subunits. The note with it: SVEC cells. The class given is cell-based. Here is the method: as §4

As for `Cl[TeH]1(Cl)(Cl)OCCO1` [AS101, ammonium trichloro(dioxyethylene-O,O′)tellurate], the “cell attachment to fibronectin” value in [1] is “inhibited cell attachment to fibronectin”. Moreover, the “number of tubes formed” value in [2] was “reduced the number of tubes formed”. In assay [3], the “C16 peptide binding to αVβ3 integrin” value was “block” and the “fibronectin binding to αVβ3 integrin” value is on record as “block”. Also, in assay [4], the “cell attachment to AG73 peptide” value is listed as “slightly decrease”, the “cell attachment to C16 peptide” value is “slightly decrease” and the “cell attachment to fibronectin” value is on record as “inhibited cell attachment to fibronectin”. The “cell attachment to C16 and AG73 peptides” value in [5] is “similar”. Besides, in [6], the “cell attachment to fibronectin” value is “inhibited cell attachment to fibronectin”; the “cell attachment to C16 and AG73 peptides” value was “similar”. The “cell attachment to antibodies against integrin β subunits” value in assay [7] is “considerable inhibition”. Also, in assay [8], the “angiogenic capability of ECGS” value is reported as “reduced the angiogenic capability of ECGS to baseline levels”. Further, the “endothelial cell invasion and migration into Matrigel plug (angiogenesis)” value in [9] is “inhibit endothelial cell invasion and migration”. Besides, the “cell attachment to antibodies against integrin α subunits” value in assay [10] is “little if any inhibition”.
`O=C1O[Te]23OC(=O)C(O2)C2O[Te]4(OC(=O)C(O4)C1O3)OC2=O` [SAS, [TeO4(COCH)2]2]: in assay [1], the “cell attachment to fibronectin” value is listed as “inhibited cell attachment to fibronectin”. Moreover, the “number of tubes formed” value in assay [2] is “reduced the number of tubes formed”. Besides, in assay [3], the “C16 peptide binding to αVβ3 integrin” value was “block” and the “fibronectin binding to αVβ3 integrin” value was “block”. Moreover, in assay [4], the “cell attachment to AG73 peptide” value is given as “slightly decrease”, the “cell attachment to C16 peptide” value was “slightly decrease” and the “cell attachment to fibronectin” value is “inhibited cell attachment to fibronectin”. Also, the “cell attachment to C16 and AG73 peptides” value in [5] is recorded as “similar”. Besides, in [6], the “cell attachment to fibronectin” value is “inhibited cell attachment to fibronectin”; the “cell attachment to C16 and AG73 peptides” value is “similar”. Further, the “cell attachment to antibodies against integrin β subunits” value in assay [7] was “considerable inhibition”. Moreover, the “angiogenic capability of ECGS” value in assay [8] is “reduced the angiogenic capability of ECGS to baseline levels”. Moreover, in assay [9], the “endothelial cell invasion and migration into Matrigel plug (angiogenesis)” value was “inhibit endothelial cell invasion and migration”. In addition, the “cell attachment to antibodies against integrin α subunits” value in assay [10] is “little if any inhibition”.

Source of the values: patent US20100297256A1, “METHODS AND COMPOSITIONS FOR INHIBITING INTEGRINS USING TELLURIUM-CONTAINING COMPOUNDS” (priority 2007, published 2010).
